Data taken from patent publication US8846704B2, “Thiopyrimidine-based compounds and uses thereof” (YM Biosciences Austraila Pty Ltd, priority 2007, dated 2014).

Columns and labels:
Type in all cases: cell-based
[1] = target: T1, BaF3 TELJAK3 cells (Homo sapiens, UniProt P52333); test: Cellular screening, BaF3 TEL:JAK3 cells, Alamar Blue; settings: 40 hr, read-out: BafT_J3 IC50_nM
T1 construct: fused on or other part: TEL (ETV6) N-terminal part, coding nucleotides 1-487, serves as the oligomerising partner; It is fused through a Sal I site to the JAK3 kinase domain and expressed from pTRE2 in BaF3 cells bearing pTET-off; P41212 (Transcription factor ETV6)
T1 sequence (P52333 1-1124): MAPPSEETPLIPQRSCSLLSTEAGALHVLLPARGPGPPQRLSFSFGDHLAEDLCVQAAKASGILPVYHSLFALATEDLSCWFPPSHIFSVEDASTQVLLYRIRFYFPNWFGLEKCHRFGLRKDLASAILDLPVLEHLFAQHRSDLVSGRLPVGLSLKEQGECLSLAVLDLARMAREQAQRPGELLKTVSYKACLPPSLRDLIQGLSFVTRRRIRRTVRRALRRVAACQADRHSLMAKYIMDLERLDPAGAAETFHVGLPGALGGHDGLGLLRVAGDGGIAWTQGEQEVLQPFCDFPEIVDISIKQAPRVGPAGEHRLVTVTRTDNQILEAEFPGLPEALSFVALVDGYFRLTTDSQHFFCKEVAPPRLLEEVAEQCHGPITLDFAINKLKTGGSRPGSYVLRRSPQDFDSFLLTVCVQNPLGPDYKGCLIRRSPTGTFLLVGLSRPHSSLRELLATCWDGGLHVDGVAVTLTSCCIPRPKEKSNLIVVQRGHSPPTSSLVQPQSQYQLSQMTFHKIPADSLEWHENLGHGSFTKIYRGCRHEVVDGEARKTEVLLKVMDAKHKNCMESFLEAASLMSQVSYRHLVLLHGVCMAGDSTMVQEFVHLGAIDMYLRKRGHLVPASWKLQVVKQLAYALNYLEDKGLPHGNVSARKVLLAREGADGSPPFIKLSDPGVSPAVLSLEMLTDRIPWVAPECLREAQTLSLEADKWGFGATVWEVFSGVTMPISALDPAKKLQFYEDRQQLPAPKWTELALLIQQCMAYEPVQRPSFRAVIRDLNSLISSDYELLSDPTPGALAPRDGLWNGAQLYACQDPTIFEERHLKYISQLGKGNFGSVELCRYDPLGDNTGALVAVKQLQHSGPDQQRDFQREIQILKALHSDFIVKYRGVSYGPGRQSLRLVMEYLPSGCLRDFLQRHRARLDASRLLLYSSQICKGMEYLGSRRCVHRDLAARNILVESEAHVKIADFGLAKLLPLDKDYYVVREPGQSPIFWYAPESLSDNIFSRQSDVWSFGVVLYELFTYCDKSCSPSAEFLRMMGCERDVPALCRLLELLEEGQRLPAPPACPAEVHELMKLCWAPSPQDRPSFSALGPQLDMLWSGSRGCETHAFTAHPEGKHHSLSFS
Description: (§1) For screening purposes, compounds were diluted in 96 well plates at a concentration of 20 μM. Plates were warmed at 37° C. for 30 minutes before the assay was performed.
The coding region encompassing nucleotides 1-487 of TEL was amplified by PCR using the oligonucleotides STEL (5′-GGAGGATCCTGATCTCTCTCGCTGTGAGAC-3′) [SEQ ID NO 14] and 3TEL (5′-AGGC GTCGACTTCTTCTTCATGGTTCTG-3′) [SEQ ID NO 15] and U937 mRNA as a template. A […] restriction site was incorporated into the STEL primer, and a Sal I restriction site was incorporated into the 3TEL primer. The regions encompassing the kinase domain of JAK2 (nucleotides 2994-3914; JAK2F 5′-ACGC GTCGACGGTGCCTTTGAAGACCGGGAT-3′ [SEQ ID NO 16]; JAK2R 5′-ATAGTTTAGCGGCCGCTCAGAATGAAGGTCATTT-3′) [SEQ ID NO 17] and JAK3 (nucleotides 2520-3469; JAK3F 5′-GAAGTCGACTATGCCTGCCAAGACCCCACGATCTT-3′) [SEQ ID NO 18] were generated by PCR using Taq DNA polymerase (Gibco/BRL) and […] as a template. A Sal I restriction site was incorporated into the forward primer of JAK2 and JAK3, a Not I site was incorporated into the JAK2 reverse primer and a Xba I site was added to the reverse primer of JAK3.
The TEL/Jak3 fusion was prepared by ligation of the JAK3 Sal I/Not I cleaved kinase domain PCR product with the BamH I/Sal I restriction digested TEL product, followed by ligation of the ligation product into the BamH I/Not I digested pTRE2, to give the TEL/Jak3 fusion plasmid pTELJAK3.
(§2) The growth factor dependant myelomonocytic cell line BaF3 bearing the pTET-off plasmid (Clontech) was transfected with either pTELJAK2 or pTELJAK3, and the transfected cells were selected for growth-factor independent cell growth. The BaF3 wild-type cells were cultured in DMEM containing 10% FCS, 10% WEHI 3B conditioned medium. The BaF3 TELJAK cells ([…]) were cultured in DMEM 10% Tet-System Approved FBS (without WEHI 3B conditioned medium).
(§3) Cell suspensions were prepared by harvesting cells from culture (the cells used in this test were in late log phase growth with high viability.) Cells were diluted in the appropriate growth medium, as described above, to 1.1× final concentration (from 50,000 cell/mL to 200,000 cell/mL, depending on cell line).
(§4) Compounds to be tested were added (10 μL, 10× final concentration) to a flat bottomed 96-well plate. The cellular suspension (90 μL per well) was then added, and the plate incubated for 40 hr at 37° C., 5% CO2. Alamar Blue 10 μL per well was added and the plates returned to the incubator for a further 4-6 hours. The plates were then read at 544 nm.

[2] = tested on: CTLL2; test: Cellular screening, CTLL2 cells, Alamar Blue; settings: Mus musculus, CTLL-2, read-out: CTLL2 IC50_nM
Description: as §3, §4

[3] = tested on: BaF3 wild-type cells; test: Cellular screening, BaF3 wild-type cells, Alamar Blue; settings: Mus musculus, 40 hr, read-out: BAF3wt IC50_nM
Description: as §1, §2, §3, §4

Compound	GI50 [1] [µM]	IC50 [2] [µM]	IC50 [3] [µM]
C=CC(=O)Nc1ccc(Sc2nc(Nc3ccc(NS(C)(=O)=O)c(OC)c3)ncc2C)cc1 [Compound 296, N-(4-(2-(3-methoxy-4-(methylsulfonamido)phenylao)-5-methylpyrimidin-4-ylthio)phenyl)acrylamide]	< 1	< 1	< 5
C=CC(=O)Nc1ccc(Sc2nc(Nc3ccc(N4CCOCC4)cc3)ncc2C)c(C)c1 [Compound 163, N-(3-methyl-4-(5-methyl-2-(4-morpholinophenylao)pyrimidin-4-ylthio)phenyl)acrylamide]	< 1	< 1	> 20
c1cc(Sc2ccc(Cn3cnnn3)cc2)nc(Nc2ccc(N3CCOCC3)cc2)n1 [Compound 109, 4-(4-((1H-tetrazol-1-yl)methyl)phenylthio)-N-(4-morpholinophenyl)pyrimidin-2-ae]	< 20	> 20	< 20
C=CC(=O)NCc1ccc(Sc2ccnc(Nc3ccc(N4CCOCC4)cc3)n2)cc1 [Compound 111, N-(4-(2-(4-morpholinophenylamino)pyrimidin-4-ylthio)benzyl)acrylamide]	< 1	< 5	< 20
C=CC(=O)Nc1ccc(Sc2nc(Nc3ccc(N4CCOCC4)c(OC)c3)ncc2C)cc1 [Compound 248, N-(4-(2-(3-methoxy-4-morpholinophenylao)-5-methylpyrimidin-4-ylthio)phenyl)acrylamide]	< 1	< 1	< 5
C=CC(=O)Nc1ccc(Sc2nc(Nc3ccc(N4CCC(CO)CC4)cc3)ncc2C)cc1 [Compound 286, N-(4-(2-(4-(4-(hydroxymethyl)piperidin-1-yl)phenylao)-5-methylpyrimidin-4-ylthio)phenyl)acrylamide]	< 1	< 1	> 20
Nc1ccc(Sc2ccnc(Nc3ccc(N4CCOCC4)cc3)n2)cc1 [Compound 27, 4-(4-aophenylthio)-N-(4-morpholinophenyl)pyrimidin-2-ae]	< 20	< 5	< 20
O=C(/C=C/Cl)Nc1cccc(Sc2ccnc(Nc3ccc(N4CCOCC4)cc3)n2)c1 [Compound 340, (E)-3-chloro-N-(3-(2-(4-morpholinophenylao)pyrimidin-4-ylthio)phenyl)acrylamide]	< 1	< 5	< 5
C=CC(=O)Nc1ccc(Sc2nc(Nc3ccc(N4CCCC(O)C4)cc3)ncc2C)cc1 (stereo not drawn) [Compound 299, N-(4-(2-(4-(3-hydroxypiperidin-1-yl)phenylao)-5-methylpyrimidin-4-ylthio)phenyl)acrylamide]	< 1	< 1	< 20
COc1ccc(Nc2ncc(C)c(Sc3ccc(N)cc3)n2)cc1OC [Compound 240, 4-(4-aophenylthio)-N-(3,4-dimethoxyphenyl)-5-methylpyrimidin-2-ae]	< 5	< 5	< 1
Cc1cnc(Nc2ccc(O)cc2)nc1Sc1ccc(NC(=O)CCl)cc1 [Compound 193, 2-chloro-N-(4-(2-(4-hydroxyphenylao)-5-methylpyrimidin-4-ylthio)phenyl)acetamide]	< 1	< 1	< 5
N#CCNCc1cccc(Sc2ccnc(Nc3ccc(N4CCOCC4)cc3)n2)c1 [Compound 68, 2-(3-(2-(4-morpholinophenylao)pyrimidin-4-ylthio)benzylao)acetonitrile]	< 20	> 20	> 20
C=CC(=O)Nc1ccc(Sc2ccnc(Nc3ccc(N4CCOCC4)cc3)n2)cc1OC [Compound 123, N-(2-methoxy-4-(2-(4-morpholinophenylao)pyrimidin-4-ylthio)phenyl)acrylamide]	< 5	< 20	< 5
C=CC(=O)Nc1ccc(Sc2nc(Nc3ccc(OC)c(OC)c3)ncc2C)cc1 [Compound 241, N-(4-(2-(3,4-dimethoxyphenylao)-5-methylpyrimidin-4-ylthio)phenyl)acrylamide]	< 1	< 1	< 20
CC#CC(=O)Nc1ccc(Sc2ccnc(Nc3cccc(N4CCOCC4)c3)n2)cc1 [Compound 233, N-(4-(2-(3-morpholinophenylao)pyrimidin-4-ylthio)phenyl)but-2-ynamide]	< 1	< 5	< 5
C=CC(=O)Nc1ccc(Sc2nc(Nc3cccc(OC)c3)ncc2C)cc1 [Compound 235, N-(4-(2-(3-methoxyphenylao)-5-methylpyrimidin-4-ylthio)phenyl)acrylamide]	< 1		
C=CC(=O)Nc1ccc(Sc2nc(Nc3cccc(N4CCOCC4)c3)ncc2I)cc1 [Compound 269, N-(4-(5-iodo-2-(3-morpholinophenylao)pyrimidin-4-ylthio)phenyl)acrylamide]	< 1		
C=CC(=O)Nc1ccc(Sc2ccnc(Nc3ccc(N4CCN(C)CC4)cc3)n2)cc1 [Compound 238, N-(4-(2-(4-(4-methylpiperazin-1-yl)phenylao)pyrimidin-4-ylthio)phenyl)acrylamide]	< 1		
CC#CC(=O)Nc1cccc(Sc2ccnc(Nc3cccc(N4CCOCC4)c3)n2)c1 [Compound 232, N-(3-(2-(3-morpholinophenylao)pyrimidin-4-ylthio)phenyl)but-2-ynamide]	< 5		
C=CC(=O)Nc1ccc(Sc2ccnc(Nc3cccc(CO)c3)n2)cc1 [Compound 278, N-(4-(2-(3-(hydroxymethyl)phenylao)pyrimidin-4-ylthio)phenyl)acrylamide]	< 1		
C=CC(=O)Nc1ccc(Sc2nc(Nc3ccc(C4CCN(C)CC4)cc3)ncc2C)cc1 [Compound 246, N-(4-(5-methyl-2-(4-(1-methylpiperidin-4-yl)phenylao)pyrimidin-4-ylthio)phenyl)acrylamide]	< 1		
